Measured values as given in US20130244255A1, “ANTIBODIES DIRECTED TO GPNMB AND USES THEREOF” (priority 2006, published 2013).

What was measured:
SK-Mel-2 cells [1] = experiment: Clonogenic assay, SK-Mel-2 cells after GPNMB siRNA; type: cell-based, human
Experimental: Cells were plated in 96-well plates and allowed to recover overnight. […] The cells were then transferred into 6-well plates and allowed to form colonies. Colonies were stained with Giemsa stain (Sigma) and counted. The surviving cell fractions were calculated based upon the ratio of the treated sample and the untreated control. The results were expressed as a percentage of control using GraphPad Prism Version 4 software.
The amount of GPNMB expression was reduced for at least 7 days after transfection.

SK-Mel-2 cells [2] = experiment: Apoptosis analysis (Annexin V-FITC / PI); type: cell-based, human; conditions: SK-Mel-2, 48 hour, 1000 ng/mL
Experimental: (§1) Briefly, cells were pulsed at the indicated times with 30 μM of bromodeoxyuridine (BrdU, Sigma) for 30 min, harvested, fixed and permeabilized in methanol. Nascent DNA synthesis was detected by anti-bromodeoxyuridine-FITC (BD Biosciences, San Jose, Calif.) staining. Total DNA content was detected using propidium iodide (PI, Sigma). For apoptosis analysis, cells were treated as above and labeled with Annexin V-FITC followed by propidium iodide exclusion using the Annexin V-FITC Apoptosis Detection kit I (BD PharMingen, San Diego, Calif.) according to the manufacturer's protocols. Flow cytometry (as described in the previous Example) was used to assay both cell cycle and apoptosis studies.
(§2) To investigate this possibility, analysis of apoptosis using Annexin-V surface binding and loss of propidium iodide (PI) exclusion was performed.

TK-10 control cells = experiment: Apoptosis analysis (Annexin V-FITC / PI); type: cell-based, human; conditions: TK-10, 48 hour, 1000 ng/mL
Experimental: as §1, §2

GPNMB = target: T1, GPNMB (Homo sapiens, UniProt Q14956); experiment: ELISA of hybridoma supernatants for binding to GPNMB
T1 construct: we cloned the human CG56972 extracellular domain (ECD; aa 23-480); made in house; host or cells: HEK 293 cells
T1 sequence (Q14956 23-492): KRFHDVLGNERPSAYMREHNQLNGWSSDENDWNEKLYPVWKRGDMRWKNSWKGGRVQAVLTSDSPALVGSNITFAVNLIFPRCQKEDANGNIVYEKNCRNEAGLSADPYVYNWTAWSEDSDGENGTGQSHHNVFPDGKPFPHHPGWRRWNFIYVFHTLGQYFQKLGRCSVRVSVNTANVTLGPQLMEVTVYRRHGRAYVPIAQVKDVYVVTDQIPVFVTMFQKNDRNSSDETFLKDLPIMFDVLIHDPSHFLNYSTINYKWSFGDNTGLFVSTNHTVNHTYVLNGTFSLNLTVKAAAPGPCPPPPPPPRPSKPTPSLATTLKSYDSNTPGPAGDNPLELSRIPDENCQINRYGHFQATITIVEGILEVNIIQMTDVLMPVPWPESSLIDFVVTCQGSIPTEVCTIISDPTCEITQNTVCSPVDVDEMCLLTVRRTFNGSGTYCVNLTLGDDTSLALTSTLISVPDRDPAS
Experimental: After 14 days of culture, hybridoma supernatants were screened for GPNMB specific monoclonal antibodies. In the Primary screen, the ELISA plates (Fisher, Cat. No. 12-565-136) were coated with 50 μL/well of GPNMB (1 μg/mL) in Coating Buffer (0.1 M Carbonate Buffer, pH 9.6, NaHCO3 8.4 g/L), then incubated at 4° C. overnight. After incubation, the plates were washed with Washing Buffer (0.05% Tween 20 in PBS) three times. 200 μL/well Blocking Buffer (0.5% BSA, 0.1% Tween 20, 0.01% Thimerosal in 1×PBS) were added and the plates were incubated at room temperature for 1 h. After incubation, the plates were washed with Washing Buffer three times. Aliquots (50 μL/well) of hybridoma supernatants and positive and negative controls were added, and the plates were incubated at room temperature for 2 h. The positive control used throughout was serum from the relevant GPNMB immunized XenoMouse® mouse and the negative control was serum from the KLH-immunized relevant strain of XenoMouse® mouse. After incubation, the plates were washed three times with Washing Buffer. 100 μL/well of detection antibody goat anti-huIgGfc-HRP (Caltag, Cat. No. H10507, using concentration was 1:2000 dilution) was added and the plates were incubated at room temperature for 1 hour. After incubation, the plates were washed three times with Washing Buffer. 100 μl/well of TMB (BioFX Lab. Cat. No. TMSK-0100-01) was added, and the plates were allowed to develop for about 10 minutes (until negative control wells barely started to show color). 50 μl/well stop solution (TMB Stop Solution (BioFX Lab. Cat. No. STPR-0100-01) was then added and the plates were read on an ELISA plate reader at a wavelength of 450 nm.
Hybridoma supernatants were screened for binding to GPNMB by ELISA as described above in Example 2.

Melanoma cell lines = experiment: Clonogenic assay with 1.15.1-AE, melanoma panel; type: cell-based, human
Experimental: Melanoma cell lines were plated onto flat bottom 96-well tissue culture plates (Becton Dickinson, Franklin Lakes, N.J., USA). On day 2 or when cells reach ˜25% confluency, various concentrations of unconjugated and Auristatin E-conjugated 1.15.1 were added to cells. MAb 2.6.2-AE was also used as a conjugated isotype control in this study. On day 5, the cells were trypsinized, transferred to 6-well tissue culture plates and incubated at 37° C. Plates were examined daily. On days 8-10, all plates were Giemsa stained and colonies on the plates were counted.

Substance | sensitivity of SK-Mel-2 cells to growth-inhibitory activity following siRNA-mediated GPNMB knockdown (SK-Mel-2 cells [1]) | % AnnV+/PI+ UR (SK-Mel-2 cells [2]) | % AnnV+/PI− LR (SK-Mel-2 cells [2]) | % AnnV−/PI+ UL (SK-Mel-2 cells [2]) | % AnnV+/PI+ UR (TK-10 control cells) | % AnnV+/PI− LR (TK-10 control cells) | % AnnV−/PI+ UL (TK-10 control cells) | Avg OD (GPNMB; antibody at 12.3 ng/mL) | Avg OD (GPNMB; antibody at 37 ng/mL) | Avg OD (GPNMB; antibody at 111 ng/mL) | Avg OD (GPNMB; antibody at 333 ng/mL) | Avg OD (GPNMB; antibody at 1 μg/mL) | Avg OD (GPNMB; antibody at 3 μg/mL) | effect on growth of all the melanoma cell lines tested (in words) (Melanoma cell lines)
CR011-vcMMAE: CR011 conjugated to monomethyl auristatin E through a protease cleavable valine-citrulline linker; approx. 4 drugs per antibody | less sensitive | – | – | – | – | – | – | – | – | – | – | – | – | –
CR011: fully human monoclonal antibody that specifically binds to GPNMB; VH SEQ ID NO: 20, VL SEQ ID NO: 29 | – | 0.45% | 4.74% | 0.36% | 0.34% | 0.55% | 0.83% | 0.168 | 0.381 | 0.701 | 0.902 | 1.051 | 1.159 | no effect on growth
